Legend:
[1] = molecular target: human RAR-related orphan receptor alpha (hRORα) (Homo sapiens (Human), UniProt P35398); assay: RORα receptor-ligand competition binding assay; conditions: His-tagged hRORα, [3H]-25-hydroxycholesterol; mean ± standard deviation; read-out: RORa Ki
Protocol: (§1) His-tagged human RAR-related orphan receptor alpha (hRORα), human RAR-related orphan receptor beta (hRORβ), and human RAR-related orphan receptor gamma (hRORγ) are used for receptor-ligand competition binding assays to determine Ki values. Typical procedures are provided below.
(§2) The final wells contain 20 μg/mL aprotinin and 20 μg/mL leupeptin and 10 μM Pefabloc. Typically, receptor binding assays include radio-labeled ligands, such as 7 nM [^3H]-25-hydroxycholesterol for alpha binding, 20 nM [^3H]-3-[[4-[[3-(2,6-dichlorophenyl)-5-isopropyl-isoxazol-4-yl]methoxy]-N,2-dimethyl-anilino]methyl]benzoic acid for beta binding, and 6 nM [3H]-25-hydroxycholesterol for gamma binding, and 0.5 μg RORα receptor, 0.03 μg RORβ receptor, or 0.13 μg RORγ receptor per well. Assays are typically run in 96-well format. […] Plates are mixed for 30 minutes on an orbital shaker at room temperature. After an incubation of 4 hours, plates are read in a Wallac MICROBETA® counter.
(§3) The data are used to calculate an estimated IC50 using a four parameter logistic fit. The Kd for [^3H]-25-hydroxycholesterol for RORa and RORg, and [^3H]-3-[[4-[[3-(2,6-dichlorophenyl)-5-isopropyl-isoxazol-4-yl]methoxy]-N,2-dimethyl-anilino]methyl]benzoic acid for RORb binding, is determined by saturation binding. The IC50 values for compounds are converted to Ki using the Cheng-Prushoff equation.

[2] = system: anti-CD3/anti-CD28/IL-23 stimulated IL-17 secretion in PBMC's; assay: PBMC IL-17 secretion ELISA; type: cell-based; conditions: Homo sapiens, anti-CD3/anti-CD28/IL-23 stimulation, 48 hours, mean ± standard deviation, read-out: hPBMC IL-17 ELISA (EC50)
Protocol: PBMC's are isolated from whole blood buffy coats by first combining fresh buffy coats with equal volumes of phosphate buffered saline. Thirty five mL of PBS/buffy coat solution are then gently overlaid onto 15 mL of Ficoll in 50 mL conical tubes. Following centrifugation for 30 minutes at 500×g (with slow acceleration and deceleration) the top layer of plasma is discarded and the layer of cells along the Ficoll interface is collected and pooled. Each 250 mL tube is filled to the top with room temperature RPMI-1640 media. Tubes are spun for 10 minutes at 500×G (with slow acceleration and deceleration), the media is removed by aspiration, and the wash step is repeated. Cells are resuspended in ice cold Recovery Cell Culture Freezing Medium from Life Technologies (Catalog number 12648-010) on ice. The cell concentration is adjusted to 66.7 million cells/mL. Cell are slow frozen at −1° C./minute in vials with 100 million cells and stored in liquid nitrogen.
PBMC are brought out of thaw by resuspending with 1 mL of complete media (RPMI-1640 containing 30 mM HEPES, 100 units/mL penicillin, 100 μg/mL streptomycin, 3.25 mM L-Glutamine, 0.2 μM beta-mercaptoethanol, and 10% FBS) followed by the drop wise addition of 2 mL, 4 mL, 8 mL, and 16 mL of complete media with gentle swirling. Cells are spun down for 5 minutes and the cell pellet is resuspended in complete media. Clumps of cells are broken up by running the cell solution through a 23 gauge syringe needle and a […] cell strainer. One hundred thousand cells per well are added to 384 well polystyrene tissue culture treated flat bottomed plates in a total of 30 μL. Stimulation cocktail containing anti-human CD3 antibody, anti-human CD28 antibody, IL-23 and compounds prepared in complete media are added to the cells simultaneously in a total volume of 30 μL. The final concentration of added stimulants is 160 ng/mL, 500 ng/mL, and 5 ng/mL for anti-CD3 antibody, anti-CD28 antibody, and IL-23 respectively and 0.3% for DMSO. Plates are sealed with AERASEAL® sealing film and incubated for 48 hours at 37° C., 95% humidity, and 5% CO2.
Following the incubation period, the plates are spun at 200×g for five minutes. Supernatants are diluted 1:1 with equal volume 1% BSA/PBS and tested for IL-17 with a human IL-17 ELISA kit from R&D system (catalog #D317E) according to the protocol provided with the kit with one exception—the colorimetric substrate OPD (o-phenylenediamine dihydrochloride, Sigma Cat #P6912) is used instead of the substrate supplied in the kit. Absorbance at 492 nm is measured with the Envision multi-label plate reader. A492 values are converted to concentration of IL-17 based on the IL-17 standard curve as shown below: pg/mL IL-17=EC50*[[(Top-Bottom)/(A492-Bottom)]-1](1/-Hill). IC50's for inhibition of IL-17 secretion is calculated based on converted values using a standard 4-parameter fit with maximum inhibition determined from the average values of wells with no added stimulants nor compounds and minimum inhibition from the average values of wells with stimulants alone and no added compound.

PBMC = assay: cells; type: cell-based; conditions: Homo sapiens, 48 h, read-out: Cell TiterGlo Viability (EC50, μM)
Protocol: PBMC's are isolated from whole blood buffy coats by first combining fresh buffy coats with equal volumes of phosphate buffered saline. Thirty five mL of PBS/buffy coat solution are then gently overlaid onto 15 mL of Ficoll in 50 mL conical tubes. Following centrifugation for 30 minutes at 500×g (with slow acceleration and deceleration) the top layer of plasma is discarded and the layer of cells along the Ficoll interface is collected and pooled. […] Tubes are spun for 10 minutes at 500×G (with slow acceleration and deceleration), the media is removed by aspiration, and the wash step is repeated.
Cells are spun down for 5 minutes and the cell pellet is resuspended in complete media. Clumps of cells are broken up by running the cell solution through a 23 gauge syringe needle and a 40 μM cell strainer.
Equal volumes of Cell TITERGLO® cell viability testing reagent (Promega Cat #G7573) are added to the cells remaining in the plates, and following a fifteen minute incubation with gentle shaking at room temperature luminescence is measured with the Envision multi-label plate reader. Percent cell death is calculated by setting 100% activity (cell death) to zero luminescence units and minimum activity (max number of viable cells) as the average luminescence units of wells containing stimulants alone and no added compound. IC50's are calculated using a standard four parameter fit.

[3] = molecular target: human RAR-related orphan receptor beta (hRORβ) (Homo sapiens (Human), UniProt Q92753); assay: RORβ receptor-ligand competition binding assay; conditions: His-tagged hRORβ; mean ± standard deviation; read-out: RORb Ki
Protocol: as §1, §2, §3

[4] = molecular target: human RAR-related orphan receptor gamma (hRORγ) (Homo sapiens (Human), UniProt P51449); assay: RORγ receptor-ligand competition binding assay; conditions: His-tagged hRORγ, [3H]-25-hydroxycholesterol; mean ± standard deviation; read-out: RORg Ki
Protocol: as §1, §2, §3

[5] = molecular target: human RORg ligand binding domain fused to yeast GAL4 DNA binding domain (Homo sapiens (Human), UniProt P51449); assay: HEK293 RORg GAL4 receptor-reporter assay; type: cell-based; conditions: HEK293 cells, RORg-GAL4/pGL4.31 luciferase, 18 hours; mean ± standard deviation; read-out: hIC50
[6] = system: GPI induced arthritis in DBA/1 mice; assay: Glucose-6-phosphate isomerase (GPI) induced arthritis model; type: in vivo, mouse; conditions: 100 mg/Kg orally once daily
Protocol: The GPI induced arthritis model is adapted from K. Iwanami et al Arthritis Rheumatism 58, 754-763, 2008 and D. Schubert et al. J Immunology 172, 4503-4509, 2004. Mice (8-9 week old male DBA/1 mice) (Harlan) are randomly assigned into treatment groups based on body weights collected on the day of immunization (day 0). On the day of immunization (day 0), a 1:1 (v:v) mixture of recombinant human GPI (diluted to 4 mg/mL in PBS, Gibco) and complete Freund's adjuvant (CFA, Sigma) is mixed on a high speed homogenizer (Omni) for 40 minutes in a cold room. A final concentration of 2 mg/mL GPI is achieved in the emulsion. Mice are injected at the base of the tail (2 sites of injection, subcutaneously, 100 μL each site) with the GPI emulsion. Test compounds are dosed orally starting on the same day as immunization (day 0). Starting on day 0, each paw is scored for severity of joint swelling based on a 0 to 3 scoring system (See K. Iwanami et al Arthritis Rheumatism 58, 754-763, 2008. The clinical score represents the total score of all 4 paws (maximum score=12). Clinical scores are assessed on days 0, 2, 4, 7, 8, 9, 10, 11, 12, 14, 16, 18, and 21.
The AUC is calculated by a trapezoid method for clinical score over time from the day of immunization (day 0) to day 21. Test p-values were derived from Student's t-test.

Chain of human RORg ligand binding domain fused to yeast GAL4 DNA binding domain (P51449 269-508): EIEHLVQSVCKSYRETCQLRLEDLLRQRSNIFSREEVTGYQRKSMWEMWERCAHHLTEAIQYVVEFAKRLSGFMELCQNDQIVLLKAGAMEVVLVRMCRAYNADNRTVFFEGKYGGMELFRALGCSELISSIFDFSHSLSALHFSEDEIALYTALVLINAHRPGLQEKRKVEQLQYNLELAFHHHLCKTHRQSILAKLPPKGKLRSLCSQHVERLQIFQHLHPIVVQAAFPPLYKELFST
Chain of human RAR-related orphan receptor beta (hRORβ) (Q92753 whole entry): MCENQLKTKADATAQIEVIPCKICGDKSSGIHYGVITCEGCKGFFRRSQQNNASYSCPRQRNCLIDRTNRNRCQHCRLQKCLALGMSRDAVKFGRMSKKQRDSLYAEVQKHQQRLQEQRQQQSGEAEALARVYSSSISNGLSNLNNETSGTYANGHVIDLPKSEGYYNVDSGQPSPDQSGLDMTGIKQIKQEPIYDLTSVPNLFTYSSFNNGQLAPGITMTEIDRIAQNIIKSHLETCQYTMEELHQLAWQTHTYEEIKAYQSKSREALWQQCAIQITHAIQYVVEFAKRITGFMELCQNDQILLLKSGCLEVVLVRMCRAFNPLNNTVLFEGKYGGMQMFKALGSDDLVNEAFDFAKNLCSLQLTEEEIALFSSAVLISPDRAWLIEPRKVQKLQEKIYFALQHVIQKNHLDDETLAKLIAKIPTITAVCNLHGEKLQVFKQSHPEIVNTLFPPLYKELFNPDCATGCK
Chain of human RAR-related orphan receptor gamma (hRORγ) (P51449 whole entry): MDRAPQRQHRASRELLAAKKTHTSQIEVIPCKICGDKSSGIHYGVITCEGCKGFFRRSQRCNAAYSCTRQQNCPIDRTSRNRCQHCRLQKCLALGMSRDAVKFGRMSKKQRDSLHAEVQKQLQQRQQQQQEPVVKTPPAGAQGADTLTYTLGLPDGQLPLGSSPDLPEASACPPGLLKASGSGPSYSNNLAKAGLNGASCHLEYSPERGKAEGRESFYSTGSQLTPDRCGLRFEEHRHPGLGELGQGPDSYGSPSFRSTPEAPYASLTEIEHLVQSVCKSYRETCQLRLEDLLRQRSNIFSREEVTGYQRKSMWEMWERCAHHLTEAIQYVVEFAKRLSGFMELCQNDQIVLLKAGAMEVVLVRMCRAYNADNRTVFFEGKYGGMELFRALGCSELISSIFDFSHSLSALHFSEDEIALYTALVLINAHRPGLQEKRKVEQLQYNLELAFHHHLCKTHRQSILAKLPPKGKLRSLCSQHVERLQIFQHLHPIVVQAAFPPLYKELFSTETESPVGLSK
Chain of human RAR-related orphan receptor alpha (hRORα) (P35398 whole entry): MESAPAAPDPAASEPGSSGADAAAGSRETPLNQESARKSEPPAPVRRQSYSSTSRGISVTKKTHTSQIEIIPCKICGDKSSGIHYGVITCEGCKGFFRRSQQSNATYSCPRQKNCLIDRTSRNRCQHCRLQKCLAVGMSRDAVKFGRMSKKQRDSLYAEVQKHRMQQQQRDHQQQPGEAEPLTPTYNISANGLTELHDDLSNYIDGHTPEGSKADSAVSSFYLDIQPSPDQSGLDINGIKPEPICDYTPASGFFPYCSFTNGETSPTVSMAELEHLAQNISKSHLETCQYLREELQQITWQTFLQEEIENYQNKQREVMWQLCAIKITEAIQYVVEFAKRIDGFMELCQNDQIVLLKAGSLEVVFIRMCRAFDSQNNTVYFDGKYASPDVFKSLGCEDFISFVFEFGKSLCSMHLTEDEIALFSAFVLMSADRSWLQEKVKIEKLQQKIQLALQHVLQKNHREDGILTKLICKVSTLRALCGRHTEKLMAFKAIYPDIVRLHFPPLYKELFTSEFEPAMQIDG

| Compound | Ki [1] | EC50 [2] | EC50 (PBMC) | Ki [3] | Ki [4] | IC50 [5] | severity of paw swelling and mean clinical scores compared to the vehicle group [6] | reduction in clinical score AUC ([6]; compared to the vehicle group) | Clinical Score AUC (mean ± SEM) ([6]; day 0 to day 21, male DBA/1 mice) |
| --- | --- | --- | --- | --- | --- | --- | --- | --- | --- |
| CCS(=O)(=O)c1ccc(CNC(=O)c2cc3c(s2)C2(CCN(C(C)c4ccc(C(F)(F)F)nc4)CC2)OC(C)C3)nc1 (single isomer, unassigned; isomer 2) [Example 46, N-{[5-(Ethylsulfonyl)pyridin-2-yl]methyl}-5′-methyl-1-{1-[6-(trifluoromethyl)pyridin-3-yl]ethyl}-4′,5′-dihydrospiro[piperidine-4,7′-thieno[2,3-c]pyran]-2′-carboxamide isomer 2] | > 20.4 µM | 24.5 ± 11.9 nM | > 1 µM | – | – | – | – | – | – |
| CCS(=O)(=O)c1ccc(CNC(=O)c2cc3c(s2)C2(CCN([C@@H](C)c4ccc(C#N)cc4)CC2)OCC3)cc1 [Example 64, 1-[(1S)-1-(4-Cyanophenyl)ethyl]-N-[4-(ethylsulfonyl)benzyl]-4′,5′-dihydrospiro[piperidine-4,7′-thieno[2,3-c]pyran]-2′-carboxamide] | – | – | > 3 µM | > 22.7 µM | – | – | – | – | – |
| CCS(=O)(=O)c1ccc(CNC(=O)c2cc3c(s2)C2(CCN([C@H](C)c4cnc(C(F)(F)F)nc4)CC2)O[C@@H](C)C3)cc1 [Example 16, (5′S)—N-[4-(Ethylsulfonyl)benzyl]-5′-methyl-1-{(1R)-1-[2-(trifluoromethyl)pyrimidin-5-yl]ethyl}-4′,5′-dihydrospiro[piperidine-4,7′-thieno[2,3-c]pyran]-2′-carboxamide] | – | – | > 1 µM | > 12.5 µM | – | – | – | – | – |
| CCS(=O)(=O)c1ccc(CNC(=O)c2cc3c(s2)C2(CCN(C(C)c4ccc(C(F)(F)F)nc4)CC2)OC(C)C3)cc1 (single isomer, unassigned; isomer 2) [Example 42, N-[4-(Ethylsulfonyl)benzyl]-5′-methyl-1-{1-[6-(trifluoromethyl)pyridin-3-yl]ethyl}-4′,5′-dihydrospiro[piperidine-4,7′-thieno[2,3-c]pyran]-2′-carboxamide isomer 2] | > 20.4 µM | 8.3 ± 3.8 nM | > 1 µM | > 12.5 µM | 4.42 ± 2.7 nM | 19.9 ± 10.7 nM | – | – | – |
| CCS(=O)(=O)c1ccc(CNC(=O)c2cc3c(s2)C2(CCN(C(C)c4cnc(C(F)(F)F)s4)CC2)O[C@@H](C)C3)nc1 (single isomer, unassigned; isomer 2) [Example 55, (5′S)-N-{[5-(Ethylsulfonyl)pyridin-2-yl]methyl}-5′-methyl-1-{1-[2-(trifluoromethyl)-1,3-thiazol-5-yl]ethyl}-4′,5′-dihydrospiro[piperidine-4,7′-thieno[2,3-c]pyran]-2′-carboxamide isomer 2] | – | 12.6 ± 8.1 nM | > 1 µM | > 12.5 µM | – | – | reduces severity of paw swelling and maintains lower mean clinical scores | 94% | 7.50 ± 2.08 |
| CCS(=O)(=O)c1ccc(CNC(=O)c2cc3c(s2)C2(CCN(C(C)c4cnc(C(F)(F)F)nc4C)CC2)O[C@@H](C)C3)cc1 (single isomer, unassigned; isomer 1) [Example 66, (5′S)-N-[4-(Ethylsulfonyl)benzyl]-5′-methyl-1-{1-[4-methyl-2-(trifluoromethyl)pyrim-idin-5-yl]ethyl}-4′,5′-dihydrospiro[piperidine-4,7′-thieno[2,3-c]pyran]-2′-carboxamide isomer 1] | – | 13.3 ± 4.7 nM | > 1 µM | – | – | 31.4 ± 11.2 nM | – | – | – |
| CCS(=O)(=O)c1ccc(CNC(=O)c2cc3c(s2)C2(CCN(C(C)c4cnc(C(F)(F)F)nc4C)CC2)O[C@@H](C)C3)nc1 (single isomer, unassigned; isomer 2) [Example 69, (5′S)-N-{[5-(Ethylsulfonyl)pyridin-2-yl]methyl}-5′-methyl-1-{1-[4-methyl-2-(trifluoromethyl)pyrim-idin-5-yl]ethyl}-4′,5′-dihydrospiro[piperidine-4,7′-thieno[2,3-c]pyran]-2′-carboxamide isomer 2] | – | 30 ± 18.5 nM | > 1 µM | – | – | 15.4 ± 13.4 nM | – | – | – |
| CCS(=O)(=O)c1ccc(CNC(=O)c2cc3c(s2)C2(CCN(Cc4ccc(-c5ncon5)cc4F)CC2)O[C@@H](C)C3)nc1 [Example 25, (5′S)-N-{[5-(Ethylsulfonyl)pyridin-2-yl]methyl}-1-[2-fluoro-4-(1,2,4-oxadiazol-3-yl)benzyl]-5′-methyl-4′,5′-dihydrospiro[piperidine-4,7′-thieno[2,3-c]pyran]-2′-carboxamide] | – | 30.8 ± 25.7 nM | > 1 µM | – | 6.04 ± 1.19 nM | 16.2 ± 9.7 nM | – | – | – |

— US11008336B2, “Compounds useful for inhibiting RORγt” (Eli Lilly and Company, priority 2017, dated 2021)
